Test system: Thiobacilli (consortium)
Assay: Acidification of TM medium with sulfur powder inoculated with a culture of Thiobacilli (Example 3)
Format: cell-based, Thiobacillus
Details: 33 g/l NaCl
Experimental: 25 ml of TM medium (regulated to pH 6 with HCl 0.1 N and sterilized in an autoclave with vapour for 20 minutes at 121° C.) were introduced into 100 ml flasks. 0.1 g (0.4%) of elemental sulfur (sulfur powder 98%-UNI sieved:0.05) were added to the TM culture medium. 2 g of small sulfur fragments taken from a sulfur deposit in Canada exposed for years to the outside environment and consequently definitely contaminated by sulfo-oxidizing bacteria, were added to the medium as a source of micro-organisms. The cultures were incubated under bland orbital stirring (100 rpm) for 25 days. During the incubation, the cultures were controlled daily for the indirect quantitative evaluation of the cellular development by registering the optical density value (at 600 nm) and to measure the lowering of the pH value.
At the end of this period, the culture broths obtained, with a cellular density higher than 10^7 cells/ml and a lowering of the pH of the medium to a value of 1.5, were filtered on common filter paper to eliminate the particles of excess sulfur and to be preserved, in 2 ml aliquots, in polypropylene phials, in a refrigerator at −70° C., as standardized inoculum.
The two consortia: that produced starting from collection strains and the one prepared starting from sulfur samples removed from actual deposits, were compared with respect to the growth curves and acidification capacity. […] It was then decided to use, for the whole following experiment, the trigger culture consisting of the wild type strains selected from the natural environment. This culture is hereafter called “consortium”.
25 ml of TM—in demineralized water—at pH 6, inoculated with 0.4% (vol/vol) of the bacterial suspension (consortium), with the addition of 0.1 g of sulfur powder, were introduced into 100 ml flasks. 33 g/l of NaCl were added to the medium to evaluate the inhibiting effect of the salt on the growth of the Thiobacilli and the acidification of the solution. Control cultures without NaCl were incubated parallelly.
The culture broths were controlled for pH and absorbance variations.

[Cl-].[Na+] [NaCl, Sodium Chloride]
Optical density (day 0): 0.021
pH (day 0): 6.0
Optical density (day 1): 0.025
pH (day 1): 6.0
Optical density (day 3): 0.024
pH (day 3): 6.0
Optical density (day 5): 0.028
pH (day 5): 5.8
Optical density (day 9): 0.021
pH (day 9): 5.8
Optical density (day 12): 0.021
pH (day 12): 5.8
Optical density (day 14): 0.021
pH (day 14): 5.8
Optical density (day 16): 0.014
pH (day 16): 5.8
Optical density (day 19): 0.012
pH (day 19): 5.8
Optical density (day 21): 0.010
pH (day 21): 5.8
Optical density (day 24): 0.010
pH (day 24): 5.8
Optical density (day 26): 0.014
pH (day 26): 5.8

From patent publication US7585460B2, “Method for inhibiting the biological acidification of water in contact with materials containing sulfur” (ENI S.p.A., priority 2003, dated 2009)
